Assay results: article PMC7006816, “Human β-Defensin 2 Mediated Immune Modulation as Treatment for Experimental Colitis” (Frontiers in Immunology, 2020)
Where no end group is shown, it is not given here.

Assays:
[1] = tested on: human primary PBMC's of ulcerative colitis patients; experiment: Stimulation of PBMCs of ulcerative colitis patients with LPS, cytokine release; format: cell-based; conditions: LPS 20 pg/ml; 10 μg/mL hBD2; colitis patients n = 4; LegendPlex
Description: Heparinized blood was diluted 1/1 v/v with RPMI (Gibco) and was subjected to Ficoll-Paque Plus (GE healthcare) density centrifugation within 2 h of drawing. Plasma was collected from the top from individual donors and was kept on ice until it was used at 2% in the culture medium (autologous culture medium). Isolated PBMC's were re-suspended in autologous culture medium and seeded in 96-well culture plates with 115.500 cells per well (Figure 1) or 200.000 cells per well (Figure 2) in a total of 200 μl. PBMC's from the same donor were stimulated with 100, 10 or 1 μg/ml of hBD2 either alone or together with 20 pg/ml lipopolysaccharide (LPS) (E. coli, O111:B4, Sigma L4391) or with 0.3 μg/ml Pam3CSK4 (InvivoGen). The supernatants were collected after incubation at 37°C for 24 h, and stored at −80°C until cytokine measurement.
The experiment in Figure 2 was performed with 8 subjects (4 controls and 4 colitis patients) to study the impact of disease status on treatment efficacy. Clinical status of these subjects were subtotal remission (Simponi and Salofalk), remission (Vedolizumab), mild disease (Infliximab, Salofalk, and Prednisolon), and moderate disease (Vedolizumab). PBMCs from these subjects were analyzed for IL-1b, TNF-a, IFN-g, IL-12, and IL-23 expression using a human inflammation cytometric bead array (LegendPlex Biolegends) according to manufacturer's instructions.

[2] = tested on: murine BM-DC's; experiment: Flow cytometry of BM-DCs (p-NF-κB, p-CREB, MHCII, CD86); format: cell-based, mouse; conditions: LPS + hBD2 100 μg/ml, flow cytometry, n = 6
Description: (§1) BM-DC's were generated using granulocyte-macrophage colony-stimulating factor (GM-CSF) and RPMI-1640 medium (Merck) supplemented with 10% fetal calf serum (FBS; Life Technologies), 2 mM glutamine (Thermo Fisher), 100 U/ml penicillin/streptomycin (Gibco), 50 μM 2-mercaptoethanol (Roth), 1 mM sodium pyruvate (Biochrome), and 1x non-essential amino acids (Biochrome) as previously described ([28]). Shortly, 2 × 10^6 bone marrow cells flushed from the tibias and femurs of C57BL/6 mice were seeded in dishes containing 200 U/ml GM-CSF. After 3 days extra medium containing GM-CSF was added to the cells and on day 6 half of the medium was replaced by fresh […] containing GM-CSF. After 7 or 8 days slightly attached cells were harvested. Female C57BL/6JolaHsd mice were purchased from Janvier (St. Berthevin Cedex, France). Animal experiments were performed in strict accordance with the German regulations of the Society for Laboratory Animal Science (GV-SOLAS) and the European Health Law of the Federation of Laboratory Animal Science Associations (FELASA). The protocol was approved by the Regierungspräsidium Tübingen (Anzeige 09.01.2014).
2 × 10^5 murine BM-DC's were seeded in 96-well round bottom plates and treated as described above. Cells were removed from the plate using Accutase (Sigma-Aldrich) and stained for 20 min at room temperature with Zombie Aqua (Biolegend) to exclude dead cells and extracellular antibodies against CD11c-APC (N418) (Miltenyi), MHCII-FITC (M5/114.15.2) (Miltenyi) and CD86-BV421 (GL-1) (Biolegend). For p-CREB staining cells were fixed and permeabilized with Foxp3 Staining Buffer Set (eBioscience) and stained with primary antibody phosphor-CREB mAb (Ser133; clone 87G3) (Cell Signaling) for 30 min in the dark at room temperature followed by secondary goat anti-rabbit IgG-DyLight™649 (Jackson ImmunoResearch) for 15 min at 4°C. To detect intracellular p-NF-κB BM-DCs were fixed with 2% paraformaldehyde (VWR) in PBS, permeabilized with 90% freezing methanol (Applichem) and stained with the primary antibodies to phosphor-NF-κB p65 (93H1) (Cell Signaling) for 60 min in the dark at room temperature followed by goat anti-rabbit IgG-PE-Cy7 (Santa Cruz Biotechnology) for 15 min at 4°C. PBS with 0,5% bovine serum albumin (Biomol) was used for all incubations and washing steps. At least 50,000 cells were acquired using a Canto-II flow cytometer (BD […]) with DIVA software (BD Biosciences) and were further analyzed using FlowJo 10.5 software (Tree Star).

[3] = tested on: murine BM-DC's; experiment: Cytokine production by murine BM-DC's; format: cell-based, mouse; conditions: n = 3
Description: as §1
2 × 10^5 murine BM-DC's or human Mo-DC's were seeded in 96-well round bottom plates. First they were pretreated with 100 ng/ml pertussis toxin (Sigma-Aldrich) or 5 μM of the CCR2 inhibitor RS 504393 (Tocris) and subsequently stimulated with 100 ng/ml LPS or 0.2 […] and 10 μg/ml or 100 μg/ml hBD2. 24 h later supernatants were collected and TNF-α [Biolegend (BM-DC's); R&D (Mo-DC's)] was analyzed according to the manufacturer's instructions. IL-10, IL-12, and IL-1β (LEGENDplex Biolegend) was as well-analyzed according to the manufacturer's instructions.

[4] = LPS, hBD2 100 μg/ml, 24 h, LEGENDplex

Substance: human β-defensin 2 (GIGDPVTCLKSGAICHPVFCPRRYKQIGTCGLPGTKCCKKP; not fully specified; ends and bridges not checked) [hBD2, Recombinant human β-defensin 2 expressed in E. coli as his-tagged thioredoxin fusion, cleaved and purified, natural tertiary structure]
- Proinflammatory immune response (IL-1β, TNF-α, INF-γ, IL-23, IL-12p70 release) [1]: successfully attenuated the proinflammatory immune response
- CREB phosphorylation ([2]; 60 min): increase in CREB phosphorylation
- NF-κB phosphorylation ([2]; 60 min): reduced NF-κB phosphorylation
- Maturation status (MHCII and CD86) [2]: reduced maturation status
- TNF-α production in LPS-challenged murine BM-DCs ([3]; LPS, hBD2 100 μg/ml or 10 μg/ml, 24 h, ELISA): dose-dependently curbed TNF-α production
- IL-10 secretion [3, 4]: substantial induction
- LPS-induced IL-1β secretion [3, 4]: alleviated
- LPS-induced IL-12p70 secretion [3, 4]: alleviated
- LPS-induced TNF-α secretion [3, 4]: alleviated
- Cytokine production after TLR-independent activation ([3]; cytokine cocktail TNF-α, IL-6, IL-1β (0.2 mg/ml each), hBD2 100 μg/ml): failed to modulate TLR-independent activation of BM-DCs
